The values below come from patent US20260083751A1, “ALLOSTERIC MODULATORS OF ANDROGEN RECEPTOR COACTIVATOR RECRUITMENT FOR CRPC THERAPY” (University of Pittsburgh – Of the Commonwealth System of …, priority 2022, published 2026).

Where two headings read alike, the source gives them in different places.

Type in all cases: cell-based
Data set [1] can be described thus: Cytotoxicity counter screens to the reporter assays. As to conditions: counter screens to M2H, PSA-Luc, AR-V7 reporters, read-out: IC50 in cytotoxicity counter screen. Background: A counterscreen serves to expose hits that act by an unwanted route or on another target.
The subject of data set [2] is AR-V7 directed transcriptional activation in PC3-AR-V7-EGFP cells. The experiment in a line: AR-V7 driven PSA6.1-Luc and UBE2C-Luc reporter assays, results stated jointly. As to conditions: both reporters; read-out: IC50s, both PSA6-6.1-Luc and UBE2C-Luc reporters in PC3-AR-V7-EGFP cells (potency range in words). How it is done:
PSA6.1 Promoter Driven Luciferase Reporter Assay in PC3-AR-V7-GFP Cells: PC3-AR-V7-GFP cells were bulk transfected with a mixture of FuGENE® HD transfection agent and the PSA-6.1-Luc reporter plasmid (20 ng/well) combined at a 3:1 (μL:μg) ratio in Opti-MEM™ medium (Gibco, Gaithersburg, MD) that had been incubated for 25 min at RT before being added to PC3-AR-V7-GFP cells that were suspended in RPMI 1640 (Gibco) media containing 1% L-glutamine (Invitrogen), and 10% fetal bovine serum (Gemini Bio-products). Bulk transfected PC3-AR-V7-GFP cells were seeded into white opaque 384-well assay plates (Greiner Bio-one, #781080) at 3,000 cells per well in a volume of 40 μL and incubated at 5% CO2, 37° C., and 95% humidity for 24 h. After 24 h, 5 μL of compounds were transferred to assay wells and the plates were returned to the incubator for an additional 24 h before 25 μL of BrightGlo® luciferase reagent (Promega) was added to the wells and the RLU's were captured on a SpectraMax® M5e plate reader (Molecular Devices LLC) as described previously (Fancher et al., Assay Drug Dev Technol. 2019, 17:364-386).
UBE2C Promoter Driven Luciferase Reporter Assay in PC3-AR-V7-GFP Cells: The pGL4.28-UBE2C 20bpX3 luciferase reporter plasmid (Xu et al., Cancer Res 2015, 75:3663-71) was provided by Dr. Yan Dong from Tulane University. […]
A general note: Reporter assays use an easily measured gene product as a stand-in for the process of interest.

Another data set relates to DU-145 cells. Kind of data set: Prostate cancer cell line growth inhibition assay, DU-145. As to conditions: read-out: AR negative DU-145 GI50. How it is done: (§1) Prostate Cancer Cell Line Growth Inhibition Assays: The PC-3, DU-145, LNCaP, C4-2, and 22Rv1 PC cell line growth inhibition assays have been described previously (Fancher et al., Assay Drug Dev Technol. 2016, 14:453-477; Fancher et al., Assay Drug Dev Technol. 2019, 17:364-386). On day 1, each PC cell line was harvested, counted, and seeded into two 384-well assay plates, a time zero (T0) and a time 72 h (T72) plate. […] On day 2, 25 μL of the CellTiter-Glo® (CTG) (Promega Corporation, Madison, WI) detection reagent was dispensed into the wells of the TO assay plate using a Matrix electronic multichannel pipette, and the RLUs were captured on the SpectraMax® M5e (Molecular Devices LLC, Sunnyvale, CA) microtiter plate reader. […] On day 5, 25 μL of the CTG detection reagent was dispensed into the wells of the T72 assay plate using a Matrix electronic multichannel pipette, and the RLU's were captured on the SpectraMax® M5e microtiter plate reader platform.
(§2) For the 96-well AR-LBD H^3-DHT radioligand binding assay, eight minimum and maximum plate control wells were utilized to normalize the data. […] To normalize the 72 h compound exposure PC growth inhibition data, the signals from the compound treated wells were processed and expressed as % of the T72 DMSO plate controls. […]

The next data set deals with PC-3 cells. Kind of data set: Prostate cancer cell line growth inhibition assay, PC-3. As to conditions: read-out: AR negative PC-3 GI50. How it is done:
as §1, §2

As for `Cc1nc(N)cc(N2CCOc3c(O)cc(-c4ccccc4C)cc3C2)n1` [Compound S1-2], the IC50 was 45.6 µM in data set [1] and 10 to 100 µM in data set [2]. Besides, the IC50 at 24 h in data set [1] (human, PC3-AR-V7-EGFP cells) turned out to be 45.9 µM.
Regarding `Cc1ccccc1-c1cc(O)c2c(c1)CN(c1nc(C(N)=O)cs1)CCO2` [Compound S1-1], the GI50 in the data set with DU-145 cells (72 h, listed as 1) was determined as 60.5 µM; in the data set with PC-3 cells (72 h, listed as 1) it was 61.1 µM. Besides, the IC50 in data set [2] was 10 to 100 µM.
Turning to `Cc1c(-c2ccccc2F)[nH]c2ccc(CNC(=O)CCc3cn[nH]c3)cc12` [Compound S3-11], the concentration for 50% growth inhibition (GI50) is 15.9 µM with DU-145 cells (Homo sapiens, DU-145, 72 h) and 28.4 µM with PC-3 cells (Homo sapiens, PC-3, 72 h).

One may read the GI50 as the concentration that inhibits growth by half.
